What was measured:
Type in all cases: biochemical
[1] = molecular target: CDK4/cyclin D3 (Homo sapiens (Human), UniProt P11802); test: Kinase activity assay (Caliper Mobility Shift Assay), CDK4/cyclin D3; details: 10 nM kinase, 250 uM ATP
Method: (§1) The inhibitory effect of compounds against the kinase CDK4/cyclin D3 was detected by Caliper Mobility Shift Assay method. The final concentration of the compounds to be tested was set at 10 concentrations starting from 1 uM by 3-fold serial dilution. 5 μL of compounds at 5-fold final concentration and 10 μL of CDK4/cyclin D3 kinase solution at a final concentration of 10 nM was added to a 384-well reaction plate, respectively. The plate was pre-incubated for 10 min at room temperature (with negative control wells containing 10 uL of kinase buffer and 5 uL of 5% DMSO; positive control wells containing 10 μL of kinase solution and 5 uL of 5% DMSO). The reaction was initiated by adding 10 μL of ATP at a final concentration of 250 uM and the corresponding substrate peptide mixture at room temperature for 150 minutes. 30 uL of stop detection solution containing EDTA was added to stop the kinase reaction. Caliper EZ Reader was used to read the conversion rate. Conversion inhibition rate %=(average conversion rate of positive control %−conversion rate of sample %)/(average conversion rate of positive control %−average conversion rate of negative control %). wherein: negative control wells represent the conversion rate readings of wells without enzymatic activity; positive control wells represent conversion readings for wells with no compound inhibition. The log(inhibitor) vs. response—Variable slope of the analysis software GraphPad Prism 5 was used with log concentration value as the X-axis and the percent inhibition rate as the Y-axis to fit the dose-response curve, the IC50 value of each compound on the enzyme activity was thus obtained. Calculation formula: Y=Bottom+(Top−Bottom)/(1+10^((Log IC50−X)*HillSlope)).

[2] = molecular target: CDK9/cyclin T1 (Homo sapiens (Human), UniProt P50750); test: Kinase activity assay (Caliper Mobility Shift Assay), CDK9/cyclin T1
Chain of CDK9/cyclin T1 (P50750 whole entry, species assumed): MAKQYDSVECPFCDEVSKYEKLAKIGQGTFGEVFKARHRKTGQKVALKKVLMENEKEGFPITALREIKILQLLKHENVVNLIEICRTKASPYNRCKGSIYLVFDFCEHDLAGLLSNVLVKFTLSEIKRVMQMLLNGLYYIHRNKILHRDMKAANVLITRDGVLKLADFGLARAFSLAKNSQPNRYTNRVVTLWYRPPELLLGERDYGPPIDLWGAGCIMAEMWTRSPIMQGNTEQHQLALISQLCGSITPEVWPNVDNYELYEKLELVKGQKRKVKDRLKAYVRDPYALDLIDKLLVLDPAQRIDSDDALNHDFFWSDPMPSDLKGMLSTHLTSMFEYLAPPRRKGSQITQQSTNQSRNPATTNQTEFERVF
Chain of CDK9/cyclin T1 (O60563 whole entry partner, species assumed): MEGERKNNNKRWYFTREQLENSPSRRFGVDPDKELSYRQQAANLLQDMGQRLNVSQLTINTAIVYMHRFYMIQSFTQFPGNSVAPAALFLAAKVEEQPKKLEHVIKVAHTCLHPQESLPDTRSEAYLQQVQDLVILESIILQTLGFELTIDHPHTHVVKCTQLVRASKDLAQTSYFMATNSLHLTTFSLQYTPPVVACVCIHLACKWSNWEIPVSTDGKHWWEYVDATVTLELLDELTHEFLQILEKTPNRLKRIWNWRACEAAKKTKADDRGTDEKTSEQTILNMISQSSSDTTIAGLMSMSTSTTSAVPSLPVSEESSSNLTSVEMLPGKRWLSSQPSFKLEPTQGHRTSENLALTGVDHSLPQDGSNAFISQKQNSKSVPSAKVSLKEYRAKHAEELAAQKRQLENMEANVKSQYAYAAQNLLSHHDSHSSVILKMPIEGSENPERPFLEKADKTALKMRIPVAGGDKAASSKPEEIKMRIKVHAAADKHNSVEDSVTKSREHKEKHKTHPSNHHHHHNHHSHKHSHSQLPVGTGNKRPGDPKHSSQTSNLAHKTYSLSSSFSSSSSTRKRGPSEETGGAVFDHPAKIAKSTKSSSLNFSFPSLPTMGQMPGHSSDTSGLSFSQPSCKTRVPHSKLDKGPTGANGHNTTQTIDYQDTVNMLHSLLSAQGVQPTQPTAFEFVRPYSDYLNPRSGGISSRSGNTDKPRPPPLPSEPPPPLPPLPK
Method: as §1
(§2) The IC50 values and inhibitory activities of compounds of the present disclosure on CDK6/Cyclin D3, CDK2/Cyclin A2, and CDK9/cyclin T1 were tested in a similar manner.

[3] = molecular target: CDK2/Cyclin A2 (Homo sapiens (Human), UniProt P24941); test: Kinase activity assay (Caliper Mobility Shift Assay), CDK2/Cyclin A2
Method: as §1, §2

[4] = molecular target: CDK6/Cyclin D3 (Homo sapiens (Human), UniProt Q00534); test: Kinase activity assay (Caliper Mobility Shift Assay), CDK6/Cyclin D3
Chain of CDK6/Cyclin D3 (Q00534 whole entry, species assumed): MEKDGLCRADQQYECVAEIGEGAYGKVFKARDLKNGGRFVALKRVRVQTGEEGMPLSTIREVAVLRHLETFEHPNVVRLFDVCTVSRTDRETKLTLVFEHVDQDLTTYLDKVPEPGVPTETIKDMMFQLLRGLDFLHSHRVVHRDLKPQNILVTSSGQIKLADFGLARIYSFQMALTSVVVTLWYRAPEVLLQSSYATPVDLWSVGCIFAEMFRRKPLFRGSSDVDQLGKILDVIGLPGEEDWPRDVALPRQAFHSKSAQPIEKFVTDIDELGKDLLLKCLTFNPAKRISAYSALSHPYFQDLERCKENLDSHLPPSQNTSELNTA
Chain of CDK6/Cyclin D3 (P30281 whole entry partner, species assumed): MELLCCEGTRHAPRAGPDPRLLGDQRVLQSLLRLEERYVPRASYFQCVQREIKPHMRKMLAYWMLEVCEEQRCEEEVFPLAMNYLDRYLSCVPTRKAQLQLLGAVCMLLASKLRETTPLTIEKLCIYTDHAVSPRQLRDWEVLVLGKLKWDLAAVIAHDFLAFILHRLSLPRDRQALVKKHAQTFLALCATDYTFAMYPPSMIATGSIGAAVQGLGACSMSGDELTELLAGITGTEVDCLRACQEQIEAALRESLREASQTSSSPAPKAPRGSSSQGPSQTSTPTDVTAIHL
Method: as §1, §2

Chain of CDK4/cyclin D3 (P11802 whole entry, species assumed): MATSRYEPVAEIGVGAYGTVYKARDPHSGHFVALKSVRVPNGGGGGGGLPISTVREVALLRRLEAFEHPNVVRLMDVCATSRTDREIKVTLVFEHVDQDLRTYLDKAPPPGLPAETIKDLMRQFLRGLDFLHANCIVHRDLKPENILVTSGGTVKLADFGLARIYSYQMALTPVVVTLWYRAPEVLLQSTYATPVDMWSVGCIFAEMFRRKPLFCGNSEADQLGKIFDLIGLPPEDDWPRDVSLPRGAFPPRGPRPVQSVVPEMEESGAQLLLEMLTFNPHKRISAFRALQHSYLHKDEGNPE
Chain of CDK4/cyclin D3 (P30281 whole entry partner, species assumed): as the sequence (P30281 whole entry partner, species assumed) above

SMILES	IC50 [1]	IC50 [2]	IC50 [3]	IC50 [4]
CC(C)c1noc2ccc3cnc(N[C@H]4CC[C@H](NC5CCOCC5)CC4)nc3c12 [I.1, (1R,4R)-N^1-(9-isopropylisoxazolo[5,4-h]quinazolin-2-yl)-N^4-(tetrahydro-2H-pyran-4-yl)cyclohexane-1,4-diamine]	32 nM	25 nM	42 nM	36 nM
CC(C)c1noc2ccc3cnc(N[C@H]4CC[C@H](NC5CCNCC5)CC4)nc3c12 [I.2, (1R,4R)-N^1-(9-isopropylisoxazolo[5,4-h]quinazolin-2-yl)-N^4-(piperidin-4-yl)cyclohexane-1,4-diamine]	22 nM	16 nM	12 nM	26 nM
CC(C)n1nnc2ccc3cnc(N[C@H]4CC[C@H](NC5CCOCC5)CC4)nc3c21 [II.2, (1R,4R)-N^1-(1-isopropyl-1H-[1,2,3]triazolo[4,5-h]quinazolin-8-yl)-N^4-(tetrahydro-2H-pyran-4-yl)cyclohexane-1,4-diamine]	16 nM	8 nM	20 nM	22 nM
CC(C)n1nnc2ccc3cnc(N[C@H]4CC[C@H](N5CCN(CC6CCCC6)CC5)CC4)nc3c21 [II.8, N-((1R,4R)-4-(4-(cyclopentylmethyl)piperazin-1-yl)cyclo-hexyl)-1-isopropyl-1H-[1,2,3]triazolo[4,5-h]quinazolin-8-amine]	43 nM	11 nM	> 500 nM	37 nM
COCCS(=O)(=O)N1CCC(Nc2ncc3ccc4nnn(C(C)C)c4c3n2)CC1 [II.18, 1-isopropyl-N-(1-((2-methoxyethyl)sulfonyl)piperidin-4-yl)-1H-[1,2,3]triazolo[4,5-h]quinazolin-8-amine]	3 nM		1 nM	8 nM
CNS(=O)(=O)N1CCC(Nc2ncc3ccc4nnn(C(C)C)c4c3n2)CC1 [II.20, 4-((1-isopropyl-1H-[1,2,3]triazolo[4,5-h]quinazolin-8-yl)amino)-N-methylpiperidin-1-sulfamide]	4 nM		0.2 nM	12 nM
CC(C)n1nnc2c(F)cc3cnc(NC4CCN(S(C)(=O)=O)CC4)nc3c21 [II.21, 4-fluoro-1-isopropyl-N-(1-(methylsulfonyl)piperidin-4-yl)-1H-[1,2,3]triazolo[4,5-h]quinazolin-8-amine]	2 nM		0.2 nM	5 nM
CC(C)n1nnc2cc(F)c3cnc(NC4CCN(S(C)(=O)=O)CC4)nc3c21 [II.22, 5-fluoro-1-isopropyl-N-(1-(methylsulfonyl)piperidin-4-yl)-1H-[1,2,3]triazolo[4,5-h]quinazolin-8-amine]	3 nM		0.2 nM	4 nM
CC(C)n1nnc2c(Cl)cc3cnc(NC4CCN(S(C)(=O)=O)CC4)nc3c21 [II.23, 4-chloro-1-isopropyl-N-(1-(methylsulfonyl)piperidin-4-yl)-1H-[1,2,3]triazolo[4,5-h]quinazolin-8-amine]	3 nM		0.4 nM	9 nM
[2H]c1cc2cnc(NC3CCN(S(C)(=O)=O)CC3)nc2c2c1nnn2C(C)C [II.25, 1-isopropyl-N-(1-(methylsulfonyl)piperidin-4-yl)-1H-[1,2,3]triazolo [4,5-h]quinazolin-4-d-8-amine]	3 nM		0.2 nM	5 nM
Cc1cc2cnc(NC3CCN(S(C)(=O)=O)CC3)nc2c2c1nnn2C(C)C [II.26, 1-isopropyl-4-methyl-N-(1-(methylsulfonyl)piperidin-4-yl)-1H-[1,2,3] triazolo[4,5-h]quinazolin-8-amine]	3 nM		0.4 nM	8 nM
CC(C)n1nnc2c(C(F)F)cc3cnc(NC4CCN(S(C)(=O)=O)CC4)nc3c21 [II.27, 4-(difluoromethyl)-1-isopropyl-N-(1-(methylsulfonyl)piperidin-4-yl)-1H-[1,2,3]triazolo[4,5-h]quinazolin-8-amine]	3 nM		0.2 nM	5 nM
CCS(=O)(=O)N1CCC(Nc2ncc3cc(C(F)F)c4nnn(C(C)C)c4c3n2)CC1 [II.28, 4-(difluoromethyl)-N-(1-(ethylsulfonyl)piperidin-4-yl)-1-isopropyl-1H-[1,2,3]triazolo[4,5-h]quinazolin-8-amine]	3 nM		0.2 nM	7 nM
CC(C)n1nnc2c(CC(F)(F)F)cc3cnc(NC4CCN(S(C)(=O)=O)CC4)nc3c21 [II.31, 1-isopropyl-N-(1-(methylsulfonyl)piperidin-4-yl)-4-(2,2,2-trifluoro-ethyl)-1H-[1,2,3]triazolo[4,5-h]quinazolin-8-amine]	1 nM		0.2 nM	2 nM
CC(C)n1nnc2c1-c1nc(NC3CCN(S(C)(=O)=O)CC3)ncc1CC2 [II.37, 1-isopropyl-N-(1-(methylsulfonyl)piperidin-4-yl)-4,5-dihydro-1H-[1,2,3]triazolo[4,5-h]quinazolin-8-amine]	4 nM		0.5 nM	12 nM
CC(C)n1nnc2c1-c1nc(NC3CCN(S(=O)(=O)C(F)F)CC3)ncc1CC2 [II.39, N-(1-((difluoromethyl)sulfonyl)piperidin-4-yl)-1-isopropyl-4,5-dihydro-1H-[1,2,3]triazolo[4,5-h]quinazolin-8-amine]	3 nM		0.5 nM	10 nM

More lines, in order of falling IC50 [1], values ahead:

IC50 [1]	IC50 [2]	IC50 [3]	IC50 [4]	SMILES
253 nM		> 500 nM	446 nM	CC(C)n1nnc2ccc3cnc(NC4CCCNC4=O)nc3c21 (stereo not shown) [II.36, 3-((1-isopropyl-1H-[1,2,3]triazolo[4,5-h]quinazolin-8-yl)amino)piperidin-2-one]
55 nM		296 nM	35 nM	CC(C)n1nnc2ccc3cnc(NC4CCCNC4)nc3c21 (stereo not shown) [II.34, 1-isopropyl-N-(piperidin-3-yl)-1H-[1,2,3]triazolo[4,5-h]quinazolin-8-amine]
50 nM		10 nM	58 nM	CC(C)n1nnc2ccc3cnc(NC4CCC(=O)NC4)nc3c21 (stereo not shown) [II.35, 5-((1-isopropyl-1H-[1,2,3]triazolo[4,5-h]quinazolin-8-yl)amino)piperidin-2-one]
5 nM		0.2 nM	9 nM	C[C@@]1(O)CCC[C@H]1n1nnc2ccc3cnc(NC4CCN(S(C)(=O)=O)CC4)nc3c21 [II.32, (1R,2R)-1-methyl-2-(8-((1-(methylsulfonyl)piperidin-4-yl)amino)-1H-[1,2,3]triazolo[4,5-h]quinazolin-1-yl)cyclopentan-1-ol]
4 nM		1 nM	16 nM	CC(C)n1nnc2c(Br)cc3cnc(NC4CCN(S(C)(=O)=O)CC4)nc3c21 [II.24, 4-bromo-1-isopropyl-N-(1-(methylsulfonyl)piperidin-4-yl)-1H-[1,2,3]triazolo[4,5-h]quinazolin-8-amine]
3 nM		0.4 nM	4 nM	CC(C)n1nnc2ccc3cnc(NC4CCN(S(=O)(=O)C(F)F)CC4)nc3c21 [II.19, N-(1-((difluoromethyl)sulfonyl)piperidin-4-yl)-1-isopropyl-1H-[1,2,3]triazolo[4,5-h]quinazolin-8-amine]
3 nM		0.3 nM	6 nM	CC(C)n1nnc2c(C(F)F)cc3cnc(NC4CCN(S(=O)(=O)C(F)F)CC4)nc3c21 [II.30, 4-(difluoromethyl)-N-(1-((difluoromethyl)sulfonyl)piperidin-4-yl)-1-isopropyl-1H-[1,2,3]triazolo[4,5-h]quinazolin-8-amine]
3 nM		0.3 nM	5 nM	C[C@@]1(O)CCC[C@H]1n1nnc2c(C(F)F)cc3cnc(NC4CCN(S(C)(=O)=O)CC4)nc3c21 [II.33]
3 nM		0.3 nM	7 nM	CC(C)n1nnc2c1-c1nc(NC3CCN(S(=O)(=O)C4CC4)CC3)ncc1CC2 [II.38, N-(1-(cyclopropylsulfonyl)piperidin-4-yl)-1-isopropyl-4,5-dihydro-1H-[1,2,3]triazolo[4,5-h]quinazolin-8-amine]
1 nM		0.2 nM	3 nM	CC(C)n1nnc2c(C(F)F)cc3cnc(NC4CCN(S(=O)(=O)C5CC5)CC4)nc3c21 [II.29, N-(1-(cyclopropylsulfonyl)piperidin-4-yl)-4-(difluoromethyl)-1-isopropyl-1H-[1,2,3]triazolo[4,5-h]quinazolin-8-amine]
